We go through 2 molecules from ChEMBL document CHEMBL4184159, “Delphinidin inhibits BDNF-induced migration and invasion in SKOV3 ovarian cancer cells” (2017).

The subject of assay [1] is SK-OV-3. Nature of the assay: Antimigratory activity against human SKOV3 cells assessed as inhibition of BDNF-induced cell migration at 20 uM after 24 hrs by scratch wound healing assay. Format: functional, cell-based.
The target of assay [2] is RAC-alpha serine/threonine-protein kinase (Homo sapiens) (UniProt P31749). Nature of the assay: Inhibition of BDNF-induced AKT phosphorylation in human SKOV3 cells after 24 hrs by Western blot analysis. In kind it is cell-based. Background: In western blotting, separated proteins are transferred to a membrane and probed.
Assay [3] deals with SK-OV-3. Nature of the assay: Inhibition of BDNF-induced invasion in human SKOV3 cells at 20 uM after 24 hrs in by matrigel invasion assay. In kind it is functional, cell-based.
The test system of assay [4] is SK-OV-3. Nature of the assay: Antiproliferative activity against human SKOV3 cells at 5 uM after 24 hrs by CCK-8 assay. Format: functional.
Assay [5] concerns SK-OV-3. Nature of the assay: Antiproliferative activity against human SKOV3 cells at 10 uM after 24 hrs by CCK-8 assay. Format: functional. For orientation: Formazan colour is commonly taken as a measure of viable cells.
In assay [6] the test system is SK-OV-3. The assay can be described thus: Antiproliferative activity against human SKOV3 cells at 50 uM after 24 hrs by CCK-8 assay. Format: functional.
For assay [7], the system named is SK-OV-3. The assay can be described thus: Antiproliferative activity against human SKOV3 cells at 75 uM after 24 hrs by CCK-8 assay. In kind it is functional.
The subject of assay [8] is SK-OV-3. Nature of the assay: Antiproliferative activity against human SKOV3 cells at 100 uM after 24 hrs by CCK-8 assay. Format: functional, cell-based.
Assay [9] concerns SK-OV-3. Nature of the assay: Antiproliferative activity against human SKOV3 cells at 200 uM after 24 hrs by CCK-8 assay. In kind it is functional, cell-based.
Assay [10] relates to SK-OV-3. The assay can be described thus: Antimigratory activity against human SKOV3 cells assessed as inhibition of BDNF-induced cell migration after 24 hrs by scratch wound healing assay. Format: functional, cell-based.
The subject of assay [11] is SK-OV-3. The assay can be described thus: Inhibition of BDNF-induced invasion in human SKOV3 cells after 24 hrs in by matrigel invasion assay. Format: functional, cell-based.
Assay [12] relates to SK-OV-3. Nature of the assay: Downregulation of BDNF-induced MMP2 mRNA expression in human SKOV3 cells after 24 hrs by qRT-PCR analysis. In kind it is functional, cell-based. (In general: Quantitative PCR measures a nucleic acid by following its amplification.)
The test system of assay [13] is SK-OV-3. The assay can be described thus: Downregulation of BDNF-induced MMP9 mRNA expression in human SKOV3 cells after 24 hrs by qRT-PCR analysis. In kind it is functional, cell-based.
For the next assay, the species on record is Homo sapiens. The assay can be described thus: Inhibition of BDNF-induced NFkappaB nuclear translocation in human SKOV3 cells at 50 to 75 uM after 24 hrs by Western blot analysis. Format: cell-based.

Calls of active or inactive are those of the source. The rule behind the calls is not given here.

Chain of RAC-alpha serine/threonine-protein kinase (Homo sapiens) (P31749 whole entry): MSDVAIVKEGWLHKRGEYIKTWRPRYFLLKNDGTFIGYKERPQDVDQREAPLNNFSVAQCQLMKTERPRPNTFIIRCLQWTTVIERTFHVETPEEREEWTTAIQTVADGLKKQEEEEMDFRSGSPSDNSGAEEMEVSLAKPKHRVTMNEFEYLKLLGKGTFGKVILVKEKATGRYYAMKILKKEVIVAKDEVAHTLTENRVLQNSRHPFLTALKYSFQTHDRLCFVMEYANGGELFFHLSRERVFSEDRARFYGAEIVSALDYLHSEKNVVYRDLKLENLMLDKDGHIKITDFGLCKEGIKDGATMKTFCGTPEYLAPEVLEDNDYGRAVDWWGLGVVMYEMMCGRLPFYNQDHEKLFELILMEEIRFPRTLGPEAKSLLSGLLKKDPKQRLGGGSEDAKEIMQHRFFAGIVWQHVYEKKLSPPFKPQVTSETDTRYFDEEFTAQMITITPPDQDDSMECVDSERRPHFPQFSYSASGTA

Turning to `O=c1cc(N2CCOCC2)oc2c(-c3ccccc3)cccc12`, the inhibition entry in the assay with SK-OV-3 [1] and with SK-OV-3 [3] was “Active” throughout. Also, the inhibition entry in assay [2] is “Dose-dependent effect”.
Take `Oc1cc(O)c2cc(O)c(-c3cc(O)c(O)c(O)c3)[o+]c2c1.[Cl-]` [DELPHINIDIN CHLORIDE]: the Activity in the assay on SK-OV-3 [4] was over 98%; in the assay on SK-OV-3 [5], over 98%; in the assay on SK-OV-3 [6] it was over 98%; in the assay with SK-OV-3 [7] it was over 98%; with SK-OV-3 [10], “Dose-dependent effect”; in the assay on SK-OV-3 [12], “Dose-dependent effect”. Moreover, the Activity result with SK-OV-3 [13] is “Dose-dependent effect”. Also, the outcome with SK-OV-3 [8] and with SK-OV-3 [9] was Active. Besides, the inhibition result (in the assay on SK-OV-3 [11]; in [2]) was “Dose-dependent effect” each time. In addition, the inhibition result in the assay filed under Homo sapiens was “Active”.
